Article PMC9975698, “Hyperoside alleviates toxicity of β-amyloid via endoplasmic reticulum-mitochondrial calcium signal transduction cascade in APP/PS1 double transgenic Alzheimer's disease mice” (Redox Biology, 2023)

How the values were obtained:
Type in all cases: in vivo
[1] = Pharmacokinetics in brain after IV or IN administration; settings: 20 mg/kg, mice; for Tmax / k el / half-life: mouse, brain; for k el: read-out: Brain Ke (converted); for half-life: read-out: Brain t1/2 (converted)
Method: (§1) After tail vein injection or nasal administration, blood was collected at 5, 15 and 30 min, 1, 2, 4, 8, 12, 24, 48, 72, 120 and 168 h, for immediate centrifugation at 14,000 rpm for 5 min. The serum was harvested and stored at −20 °C until further processing. Brain tissue was collected and was thoroughly rinsed in saline to eliminate blood and blotted dry with filter paper. Each tissue sample was homogenized in saline (1:5, w/v) and stored at −20 °C until analysis. 50 μL of serum or 100 μL of brain tissue was put in a 1.5 mL EP tube, followed by the addition of 20 μL of internal standard solution (10 μM ISO). The protein was precipitated with 1 mL of ethyl acetate, vortexed for 5 min and centrifuged at 20,000 g (4 °C and 10 min). The supernatant solution was nitrogen blown to dry and re-suspended with 100 μL of 50% acetonitrile for centrifugation again. The supernatant was taken for analysis by using LC-MS/MS. HYP content was quantified using UHPLC-MS/MS system, which includes Agilent 1290 Infinity UHPLC, and Agilent 6460 Triple Quadrupole, equipped with an electrospray ionization interface used to generate positive ions for the determination of HYP. The compounds were analyzed by using the Agilent Zorbax Eclipse Plus C-18 column with a particle size of […] (flow rate: 0.35 mL/min). The mobile phase was set as follows: mobile phase A (0.1% formic acid in water) and mobile phase B (0.1% formic acid in ACN): 0–3 min, 10–30% B; 3–4 min, 70% B; 4–5 min, 30–70% B; 5–6 min, 70-10% B. The column and auto-sampler temperature were maintained at 30 °C and 4 °C, respectively. Data were analyzed by using Agilent MassHunter Workstation software B.01.03. The gas temperature was set at 300 °C with a flow rate of 11 L/min. Gases were set at 30 psi for the nebulizer, capillary, at 4000 V. For the HYP, the fragment was 170. The collision energy was set at 30; The mass transitions were as follows based on multiple reaction monitoring: m/z 464.38 → 299.9. For the Isorhamnetin (ISO), the fragment was 150. The collision energy was set at 30; The mass transitions were as follows based on multiple reaction monitoring: m/z 315.4 → 300.1, The measurements of HYP were done using the standard and linear least-squares regression curve.

APP/PS1 mice [2] = assay: Nissl staining of hippocampus; settings: hippocampus CA3 and DG, vs APP/PS1 control group
Method: All animal care and experimental procedures were performed in accordance with the “Institutional Animal Care and User Committee Guidelines” of the Macau University of Science and Technology. APP/PSEN1 (APP/PS1) mice (N000175) were purchased from the Nanjing Institute of Biomedical Sciences, Nanjing University, China, weighing 25 ± 5 g. The animals were housed in a temperature-controlled room with a 12 h light/dark cycle and given ad libitum food and water. Male mice were randomly divided into the following 6 experimental groups. (a) wild-type group (n = 6), (b) APP/PS1 group (n = 6), (c) HYP (20 mg/kg group) (n = 7), (d) HYP (40 mg/kg) group (n = 8), (e) HYP (80 mg/kg) group (n = 8) and (f) memantine (MEM) (10 mg/kg) positive control group (n = 8). HYP was dissolved in the solvent containing 10% DMSO, 40% PEG300 and 5% Tween-80 in PBS, and administrated via nasal injection for every 3 days with a volume of 0.5 μL/g of body weight for 8 consecutive weeks. The CA1, CA3 and DG regions of the mouse hippocampus was assessed by Nissl staining for Nissl body detection. Brain sections were dehydrated as the same as in HE staining, followed by 1% tar violet staining for 1 h, and with distilled water washing followed by 70% alcohol separation for 1 min. Tissues were then dehydrated in 70%, 80% and 90% of alcohol. […]

[3] = Pharmacokinetics in serum after IV or IN administration; settings: 20 mg/kg, mice; for AUC(0-t) / Cmax / Tmax / k el / half-life: mouse, serum; for k el: read-out: Serum Ke (converted); for half-life: read-out: Serum t1/2 (converted)
Method: as §1

APP/PS1 mice [4] = assay: Rotarod test; settings: HYP nasal, every 3 days, 8 weeks
Method: All animal care and experimental procedures were performed in accordance with the “Institutional Animal Care and User Committee Guidelines” of the Macau University of Science and Technology. APP/PSEN1 (APP/PS1) mice (N000175) were purchased from the Nanjing Institute of Biomedical Sciences, Nanjing University, China, weighing 25 ± 5 g. The animals were housed in a temperature-controlled room with a 12 h light/dark cycle and given ad libitum food and water. Male mice were randomly divided into the following 6 experimental groups. (a) wild-type group (n = 6), (b) APP/PS1 group (n = 6), (c) HYP (20 mg/kg group) (n = 7), (d) HYP (40 mg/kg) group (n = 8), (e) HYP (80 mg/kg) group (n = 8) and (f) memantine (MEM) (10 mg/kg) positive control group (n = 8). HYP was dissolved in the solvent containing 10% DMSO, 40% PEG300 and 5% Tween-80 in PBS, and administrated via nasal injection for every 3 days with a volume of 0.5 μL/g of body weight for 8 consecutive weeks. The rotarod test was used to monitor motor coordination. The test consisted of placing the animal on a rotating rod with a rotational speed of 25 rpm (Yuyan, Shanghai, China) until the animal fell to the ground and the movement time was recorded. The test was performed three times with an interval of 300 s, and the mean of the test results were calculated.

## O=c1c(O[C@@H]2O[C@H](CO)[C@H](O)[C@H](O)[C@H]2O)c(-c2ccc(O)c(O)c2)oc2cc(O)cc(O)c12 [HYP, Quercetin-3-O-β-D-galactopyranoside]
[1]; IN
  Brain Cmax: 12.76 ± 1.56 ng/m
  Brain F (AUCIN/AUCIV ratio): 603.72%
[1]; IV
  Brain Cmax: 12.82 ± 0.40 ng/mL
  Tmax: 2 h
  k el: 1.94e-05 s⁻¹
  half-life: 10.5 ± 1.63 h
[1]; inhaled or intranasal, IN
  Tmax: 1 h
  k el: 5.56e-06 s⁻¹
  half-life: 70.1 ± 5.04 h
APP/PS1 mice [2]
  density of neuronal cells (Nissl staining): density of neuronal cells in the CA3 and DG regions was higher
[3]; IN
  Serum F (AUCIN/AUCIV ratio): 23.2%
[3]; inhaled or intranasal, IN
  AUC(0-t): 5500 ± 1220 µg·h/mL
  Cmax: 300 ± 102 µg/mL
  Tmax: 0.5 h
  k el: 1.67e-05 s⁻¹
  half-life: 25.6 ± 12.5 h
[3]; IV
  AUC(0-t): 23700 ± 1740 µg·h/mL
  Cmax: 1160 ± 268 µg/mL
  Tmax: 0.08 h
  k el: 0.000103 s⁻¹
  half-life: 1.85 ± 1.25 h
APP/PS1 mice [4]
  motor ability (time retained on the rotating rod): improved after HYP treatment
